From US6329377A, “Ketomethylene group-containing cysteine and serine protease inhibitors” (Cephalon, Inc., priority 2000, dated 2001)

How the values were obtained:
Format in all cases: biochemical
Calpain I = molecular target: T1, Calpain I (Homo sapiens, UniProt P07384); experiment: Rate of inactivation of calpain I (second order rate constant); conditions: pH 7.5, pseudo-first order conditions, read-out: Calpain Inactivation Rates
T1 construct: made in house
T1 sequence (P07384 1-714): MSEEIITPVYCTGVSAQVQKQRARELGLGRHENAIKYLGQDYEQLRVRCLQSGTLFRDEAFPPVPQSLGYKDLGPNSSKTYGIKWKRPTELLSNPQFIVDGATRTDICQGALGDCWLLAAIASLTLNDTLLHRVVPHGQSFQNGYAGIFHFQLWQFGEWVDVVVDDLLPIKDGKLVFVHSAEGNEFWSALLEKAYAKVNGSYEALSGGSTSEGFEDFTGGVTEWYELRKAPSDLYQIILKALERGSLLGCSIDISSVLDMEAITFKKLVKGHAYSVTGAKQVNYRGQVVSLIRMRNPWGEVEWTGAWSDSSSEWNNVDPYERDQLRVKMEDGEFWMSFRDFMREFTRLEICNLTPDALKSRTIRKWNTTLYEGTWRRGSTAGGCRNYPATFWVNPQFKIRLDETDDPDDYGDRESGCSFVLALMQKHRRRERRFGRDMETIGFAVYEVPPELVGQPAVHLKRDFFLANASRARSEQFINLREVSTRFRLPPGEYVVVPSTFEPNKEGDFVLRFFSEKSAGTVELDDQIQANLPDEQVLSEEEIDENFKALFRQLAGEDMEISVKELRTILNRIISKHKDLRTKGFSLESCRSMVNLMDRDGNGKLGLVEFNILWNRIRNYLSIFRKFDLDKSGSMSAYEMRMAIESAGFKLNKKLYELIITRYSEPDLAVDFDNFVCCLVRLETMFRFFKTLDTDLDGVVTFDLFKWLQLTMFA
T1 sequence (P04632 1-268 partner): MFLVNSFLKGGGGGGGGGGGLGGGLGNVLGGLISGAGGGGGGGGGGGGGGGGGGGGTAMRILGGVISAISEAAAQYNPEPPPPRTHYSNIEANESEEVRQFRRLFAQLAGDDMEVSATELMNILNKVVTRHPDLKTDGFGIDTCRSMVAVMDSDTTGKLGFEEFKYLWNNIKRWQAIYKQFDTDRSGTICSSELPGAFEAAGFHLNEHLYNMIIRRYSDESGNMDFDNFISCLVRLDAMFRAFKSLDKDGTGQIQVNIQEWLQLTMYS
Procedure: (§1) To evaluate inhibitory activity, stock solutions (40 times concentrated) of each compound to be tested were prepared in 100% anhydrous DMSO and 5 μL of each inhibitor preparation were aliquoted into each of three wells of a 96-well plate. Calpain I, prepared by a modification of the method of W. J. Lee et al. (Biochem. Internatl. 22: 163-171 (1990)), was diluted into assay buffer (i.e., 50 mM Tris, 50 mM NaCl, 1 mM EDTA, 1 mM EGTA, and 5 mM-mercaptoethanol, pH 7.5 including 0.2 mM Succ-Leu-Tyr-MNA) and 175 μL aliquoted into the same wells containing the independent inhibitor stocks as well as to positive control wells containing 5 μL DMSO, but no compound. To start the reaction, 20 μL of 50 mM CaCl2 in assay buffer was added to all wells of the plate, excepting three, which were used as background signal baseline controls. Substrate hydrolysis was monitored every 5 minutes for a total of 30 minutes using a Fluoroskan II fluorescence plate reader. Substrate hydrolysis in the absence of inhibitor was linear for up to 15 minutes.
Inhibition of calpain I activity was calculated as the percent decrease in the rate of substrate (S) hydrolysis in the presence of inhibitor (I) relative to the rate in its absence (o). Comparison between the inhibited and control rates was made within the linear range for substrate hydrolysis. For screening, compounds were tested at 10 μM. Compounds having 50% inhibition at 10 μM were considered active. […] The results were plotted as % inhibition versus log inhibitor concentration and the IC50 was calculated from linear regression of the data. Apparent second order rate constants were determined from analysis of reaction progress curves under pseudo-first order conditions. Each determination represents the means of three or more independent single cuvette analyses continually monitored via a Perkin-Elmer LS50B spectrofluorimeter. […]
where y is the product formed at time t. […] The apparent second order rate constant kapp was determined as Kobs /[I]. […]

thrombin = molecular target: T2, thrombin (Homo sapiens, UniProt P00734); experiment: Inhibition of thrombin; conditions: 25 μM Bz-Phe-Val-Arg-AMC, pH 7.5, read-out: Thrombin % I @ 10 uM
T2 construct: purchased Sigma Chem. Co. T-7009
Procedure: as §1
(§2) Inhibition of calpain I activity was calculated as the percent decrease in the rate of substrate (S) hydrolysis in the presence of inhibitor (I) relative to the rate in its absence (o). Comparison between the inhibited and control rates was made within the linear range for substrate hydrolysis. For screening, compounds were tested at 10 μM. Compounds having 50% inhibition at 10 μM were considered active. The IC50s of inhibitors (concentration yielding 50% inhibition) were determined from the percent decrease in the rates of substrate hydrolysis in the presence of five to seven different concentrations of the test compound. The results were plotted as % inhibition versus log inhibitor concentration and the IC50 was calculated from linear regression of the data. Apparent second order rate constants were determined from analysis of reaction progress curves under pseudo-first order conditions. Each determination represents the means of three or more independent single cuvette analyses continually monitored via a Perkin-Elmer LS50B spectrofluorimeter. The rate of inhibition of hydrolysis was obtained by fitting the curve to the exponential equation (1):
(§3) Additionally, because α-chymotrypsin is not a calcium sensitive enzyme and is constitutively active, following addition of inhibitor stocks to the 96 well plates, 100 μl of a 2-fold concentrated stock of enzyme in dilution buffer was first added and the reaction started by addition of 100 μl of a 2-fold concentrated stock of substrate in assay buffer. Substrate hydrolysis was monitored every 5 minutes up to 30 minutes using a Fluoroskan II ([…]).
Inhibition of thrombin (Sigma Chem. Co. Cat. #T-7009) was evaluated as described for chymotrypsin except that the assay was performed in 50 mM Tris, 10 mM CaCl2, pH 7.5 and the substrate was 25 μM Bz-Phe-Val-Arg-AMC (Bachem cat#I-1080).

α-chymotrypsin = molecular target: T3, α-chymotrypsin (Bos taurus, UniProt P00766); experiment: Inhibition of α-chymotrypsin; conditions: pH 7.5, 10 μM, 0.03 mM Succ-Ala-Ala-Pro-Phe-AMC, read-out: Chymotrypsin % I @
T3 construct: purchased Sigma Chem. Co. C-3142
Procedure: as §1, §2, §3

kinact/KI (Calpain I) | inhibition at 10 µM (thrombin) | inhibition at 10 µM (α-chymotrypsin) | Structure (SMILES)
75600 M⁻¹ s⁻¹ | 9% | 98% | CC(C)CC(CC(=O)C1c2ccccc2Oc2ccccc21)C(=O)NC(Cc1ccccc1)C(=O)CF (racemic) [Compound 14b, Xanthene-COCH2 CH(iBu)CO-Phe-CH2 F]
5800 M⁻¹ s⁻¹ | 0% | 33% | CCC(C(=O)CC(CC(C)C)C(=O)NC(Cc1ccccc1)C(=O)CF)c1ccccc1 (stereo not drawn) [Compound 14a, CH3 CH2 CH(Ph)COCH2 CH(iBu)CO-Phe-CH2 F]
16800 M⁻¹ s⁻¹ | 0% | 82% | CC(C)CC(CC(=O)[C@H](CC(C)C)NC(=O)OCc1ccccc1)C(=O)NC(Cc1ccccc1)C(=O)CF (stereo partly drawn) [Compound 14c, Z-Leu-CH2 CH(iBu)CO-Phe-CH2 F]
